The test has as its system patients with acid reflux / GI tract symptoms. Put plainly: Case histories of patients treated with HCl-Ease capsules. The class given is in vivo, human. Conditions: previous treatment prescribed elsewhere, patient history. From the text:
The invention is further illustrated by the following case histories, in which the inventive capsules as described above as the specific embodiment are referred to as HCl-Ease.

Counter-ions that a name gives are not always drawn.

As to `C[N+](C)(C)CC(=O)O` [Betaine HCL], the “outcome of other treatment as stated by patient” value is “greatly increased their symptoms”. Turning to `COc1ccc2[nH]c([S+]([O-])Cc3ncc(C)c(OC)c3C)nc2c1` (centres unmarked) [Prilosec], the “outcome of other treatment as stated by patient” value is listed as “didn't help much”.

(Values after patent publication US9629887B1, “Control of acid reflux with botanicals” (Biotics Research Corporation, priority 2014, dated 2017).)
